These results are taken from US20240384236A1, “3D RECONSTITUTED BONE MARROW NICHE AND USES THEREOF” (The University of Hong Kong, priority 2023, published 2024).

Read-outs that look alike come from different tables or passages of the source.

The subject of this assay is primary AML cells. The experiment in a line: Sample drug screening: viability of primary AML cells (PrestoBlue) after 24 h drug exposure in nine culture conditions. The conditions noted are these: for IC50: Homo sapiens; for sensitivity of AML cells to the drug: co-culture with AML MSC-derived niches; for chemosensitivity of primary AML cells towards the drug: co-culture with healthy 3DON.

One may read the IC50 as the point on the concentration scale where inhibition reaches its midpoint. Turning to `COc1cccc2c1C(=O)c1c(O)c3c(c(O)c1C2=O)C[C@@](O)(C(C)=O)C[C@@H]3O[C@H]1C[C@H](N)[C@H](O)[C@H](C)O1` [daunorubicin], the “sensitivity of AML cells to the drug” value is on record as “less sensitive” and the “chemosensitivity of primary AML cells towards the drug” value is recorded as “increase the chemosensitivity”. For the setting “read-out: IC50 daunorubicin, primary AML cells co-cultured with AML 2DMN”, the IC50 stood at 74 µM. Further, the IC50 (read-out: IC50 daunorubicin, primary AML cells co-cultured with AML 3DMN) was determined as 55.9 µM. Moreover, for the setting “read-out: IC50 daunorubicin, primary AML cells co-cultured with AML 3DON”, the IC50 turned out to be 43.4 µM. Besides, the IC50 (read-out: IC50 daunorubicin, primary AML cells co-cultured with healthy 2DMN) was 0.571 µM. Besides, for the setting “read-out: IC50 daunorubicin, primary AML cells co-cultured with healthy 3DMN”, the IC50 is 3.31 µM. Also, the IC50 (read-out: IC50 daunorubicin, primary AML cells in NC1 (AML medium)) stood at 0.0486 µM. Further, the IC50 (read-out: IC50 daunorubicin, primary AML cells in NC2 (MSC medium)) amounted to 0.525 µM. Further, for the setting “read-out: IC50 daunorubicin, primary AML cells in PC (engineered growth factor cocktail medium)”, the IC50 is 34.3 µM.

Turning to `COc1cccc2c1C(=O)c1c(O)c3c(c(O)c1C2=O)C[C@@](O)(C(=O)CO)C[C@@H]3O[C@H]1C[C@H](N)[C@H](O)[C@H](C)O1` [doxorubicin], the “sensitivity of AML cells to the drug” value is recorded as “less sensitive” and the “chemosensitivity of primary AML cells towards the drug” value is on record as “increase the chemosensitivity”.
